Laboratory results: patent US20240327415A1, “Multicomponent Complexes, Including Salts, Crystalline Forms, and Hydrates and Solvates of ENT1 Inhibitors” (iTeos Belgium SA, priority 2023, published 2024)

Experiment: pH solubility studies in buffers and biorelevant media (Example 16)
Format: physicochemical
Design: key: M4: Crystalline Form 4 mono(hydrogen sulfate); Crystalline Form 2 di(hydrogen sulfate) trihydrate; Amorphous
Conditions: pH 6.8 (Phosphate), 24 h
Description: Example 16—pH Solubility Studies—(1) Crystalline Form 2 Compound 1 di(hydrogen sulfate) trihydrate, (2) Crystalline Form 3 Compound 1 di(hydrogen sulfate), and (3) Crystalline Form 4 Compound 1 mono(hydrogen sulfate): pH solubility studies were carried out on the prepared crystalline Form 2 Compound 1 di(hydrogen sulfate) trihydrate, crystalline Form 3 Compound 1 di(hydrogen sulfate) and crystalline Form 4 Compound 1 mono(hydrogen sulfate) in the following media: (1) HCl/KCl, pH 1.2; (2) Acetate, pH 4.5; (3) Phosphate, pH 6.8; (4) FaSSIF; (5) FeSSIF; and (6) FaSSGF. Slurries of the hydrogen sulfate forms were prepared in the appropriate medium and stirred at 25° C. For the experiments in the buffer media, the pH of the slurry samples was measured and adjusted as required after 1 hour and 23 hours of the slurrying. Additional solid was added where dissolution was observed post-adjustment. The pH of the samples in the biorelevant media was measured at the 23 hour timepoint. No pH adjustment was made for the biorelevant media. After a total of 24 hours of slurrying, the mother liquors were extracted via centrifugation, and the concentrations and solution purity were determined by HPLC. The residual solids were isolated and analyzed by XRPD and are shown in FIG. 77, FIG. 78, and FIG. 79. The assessment was repeated for some of the samples, where required.

Question: What does the source list for `CCCN1CCNCCCNC(=O)c2cc(OC)c(OC)c(c2)OCCC[C@@H](OC(=O)c2cc(OC)c(OC)c(OC)c2)CC1`?
Answer: XRPD of residual solids (attempt 1, 25° C.): A; XRPD of residual solids (attempt 2, 25° C.): A
